In patent US20200399238A1, “THERAPEUTIC AURONES” (MIDDLE TENNESSEE STATE UNIVERSITY, priority 2016, published 2020):

What was measured:
[1] = test system: C. glabrata (ATCC strain 66032); assay: Antifungal microdilution broth assay (PrestoBlue), C. glabrata; assay type: cell-based, Candida glabrata; conditions: Nakaseomyces glabratus, ATCC66032; Table 5
Experimental: (§1) Sigma-Aldrich) was used as the base medium for testing. […] solution of morpholinepropanesulfonic acid (MOPS; Sigma-Aldrich) was added to the RPMI to a final concentration of 0.165 M for buffering (RPMI-MOPS). This medium was adjusted to a pH of 7.0 with 10 M NaOH and filter sterilized. C. albicans (ATCC strain 90028), C. [NT] strain 66032), and C. tropicalis (ATCC strain 750) were cultured on potato dextrose agar (Sigma-Aldrich) plates, and incubated at 35° C. for 24 hours. For antifungal testing, overnight colonies were adjusted to 1.5×10^3 cells/mL, hereafter referred to as the test inoculum. […] Reduction of the compound from resazurin to resorufin is proportional to the number of metabolically active cells and can be quantified by measuring relative fluorescence units (RFUs). […] PrestoBlue was added to a final concentration of 10% in each well and fluorescence read at 560 nm excitation and 590 nm emission, per manufacturer instructions, using a SpectraMax M2e spectrophotometer (Molecular Devices, LLC, Sunnyvale, Calif.). […] The calculated Z', as described below, was compared to RFU readings and the optimal PrestoBlue incubation time was determined to be 75 minutes. IC50 determination was calculated using GraphPad Prism version 7.01 for Windows (GraphPad Software, Inc., La Jolla, Calif.) from the RFUs at dilution points. […]

[2] = test system: C. tropicalis (ATCC strain 750); assay: Antifungal microdilution broth assay (PrestoBlue), C. tropicalis; assay type: cell-based; conditions: Candida tropicalis, ATCC750; Table 5
Experimental: as §1

IKKβ, IκBα, p65 [3] = assay: Western blot, IKK / IκBα / p65 phosphorylation, RAW 264.7; conditions: 12.5, 25, 50 μM, LPS 15 min, dose-dependent
Experimental: (§2) U0126 is a compound that inhibits MEK1/2 and was used as positive control for ERK phosphorylation inhibition (Hotokezaka, Sakai et al. 2002). Cells were lysed with radio-immunoprecipitation assay (RIPA) lysis buffer that contained a protease and phosphatase inhibitor cocktail. Cell lysates were then tested for protein concentration using a BCA protein assay and diluted with RIPA lysis buffer to normalize protein concentration in all samples. Lysates were mixed with sample loading buffer containing bromophenol blue, glycerol, SDS, and 2-mercaptoethanol. The separated proteins were then transferred onto a nitrocellulose membrane and blocked with 5% BSA in IX Tris-buffered saline with 0.1% Tween-20 for 1 h. The blots were incubated with primary antibodies at 4° C. overnight followed by incubation with HRP-conjugated secondary antibodies for 2 h at 22° C. The membranes were developed by addition of ECL substrate and images were collected with a ChemiDoc XRS+ system chemiluminescence imager (Bio-Rad, Hercules, Calif., USA). Western blot band intensity was quantified using Image Lab software (Bio-Rad, Hercules, Calif., USA). […]

p65 (NF-κB) = assay: Indirect immunofluorescence for NF-κB nuclear translocation, THP-1; assay type: cell-based, human; conditions: pre-treatment with 50 aurone 1; THP-1, LPS 30 min
Text: Bay 11-7082 is a compound that inhibits LPS-induced activation of IKKα/β, thereby suppressing downstream IκBα phosphorylation/degradation and p65 nuclear translocation and was used as a positive control (Catalan, Fernandez-Castillejo et al. 2012). Treated cells were fixed, permeabilized, blocked, and stained with p65 (NF-κB) primary antibody, Dylight 488 conjugated secondary antibody, and Hoechst 33342 dye, sequentially. The Hoechst and DyLight fluorophores detect changes in nuclear morphology (blue fluorescence) and NF-κB distribution (green fluorescence), respectively. Nuclear Translocation Bioapplication software on the Arrayscan VTI reader was used for image acquisition and data analysis (Thermo Fisher Scientific, Waltham, Mass., USA). For each well, at least 400 cells were automatically acquired and analyzed. The translocation index was calculated by measuring the average intensity difference of NF-κB between the identified cytoplasmic region and nuclear region.

IKKβ, IκBα, p65 [4] = assay: Western blot, IKK / IκBα / p65 phosphorylation, THP-1; conditions: 12.5, 25, 50 μM, LPS 15 min, dose-dependent
Experimental: as §2

iNOS = assay: Western blot, iNOS expression, RAW 264.7; conditions: LPS-stimulated RAW264.7, 24 h
Experimental: as §2

NO production = assay: NO assay (Griess, nitrite), RAW 264.7; assay type: cell-based, murine; conditions: LPS-stimulated RAW264.7, 24 h
Experimental: Nitrite concentration in culture media of cells exposed to the indicated treatments was determined as an estimate of NO production with Griess reagent using a nitrate/nitrite colorimetric assay kit (Cayman Chemical Company, USA) according to the manufacturer's protocol.

[5] = test system: PMA-differentiated THP-1 cells; assay: Alamar Blue cell viability assay, THP-1; assay type: cell-based, human
Experimental: THP-1 cells were maintained in RPMI 1640 medium supplemented with 10% heat-inactivated FBS and 1% penicillin/streptomycin (complete culture medium) at 37° C. with 5% CO2 supplemented. Cell concentrations were adjusted to desired concentrations for each experiment by centrifugation at 500×g for 5 min and resuspended in complete culture medium with 100 nM of PMA. Cell concentration was adjusted to 5×10^5 cells/ml for all assays with the exception of 2.5×10^5 cells/ml were used for NF-κB nuclear translocation assay. Cells were seeded onto 96-, 24-, or 12-well plates and incubated for 48 to 72 h to allow for differentiation. Cells were washed with serum-free RPMI 1640 medium before each experiment to remove undifferentiated cells. […] Cells were seeded into tissue culture plates at 10% confluence and grown to 80% confluence within 72 h. For live cell microscopy, 1×10^5 cells/ml were seeded into 35 mm glass-bottom (MatTek) dishes 24 h prior to imaging. For luciferase assays, 1.2×10^5 cells/well were seeded into 24-well tissue culture-treated plates.
Following treatment, the relative cell viability was measured by Alamar Blue assay. For Alamar Blue assays, supernatants were replaced with culture medium containing 1× Alamar Blue reagent and incubated overnight. Cell viability was assessed by measuring relative fluorescent units (RFU) on the SpectraMax M2e microplate reader (Molecular Devices Inc., Sunnyvale, Calif., USA) at Ex 560 nm and Em 590 nm. The results were expressed as a percentage relative to LPS alone control cells. The effects of the vehicle control, DMSO, on cell viability were also assessed.
Dexamethasone is a synthetic glucocorticoid that suppresses LPS-induced pro-inflammatory cytokine expression and was used as a control (Abraham, Lawrence et al. 2006). Supernatants were collected for human cytokine ELISAs and the manufacturer's protocol was followed to assess the cytokine response. Cells remaining after the supernatant collection were tested for relative viability by Alamar Blue cytotoxicity assay as previously described.

Compound | IC50 [1] [µM] | IC50 [2] [µM] | phosphorylation of IKKβ, IκBα and p65 (IKKβ, IκBα, p65 [3]) | cytoplasmic-to-nuclear translocation of p65 (p65 (NF-κB)) | phosphorylation of IKKβ, IκBα and p65 (IKKβ, IκBα, p65 [4]) | reduction in iNOS levels (iNOS; 50 μM) [%] | reduction in iNOS levels (iNOS; 100 μM) [%] | production of NO (nitrite in supernatants) (NO production) | THP-1 cell viability (Alamar Blue) ([5]; 100 μM with LPS) | THP-1 cell viability (Alamar Blue) ([5]; 20, 40, 80 μM with LPS for 4 h) | Average % Viability (4 h with LPS) ([5]; THP-1 cells, 20 μM, 4 h with LPS, mean ± SD) [%]
COc1ccc(/C=C2\Oc3c(ccc(O)c3O)C2=O)cc1O [Aurone 1009, (Z)-6,7-dihydroxy-2-(3-hydroxy-4-methoxybenzylidene)benzofuran-3(2H)-one] | 11 | 10 |  |  |  |  |  |  |  |  | 
O=C1/C(=C/c2ccc(CO)o2)Oc2ccccc21 [aurone 1] |  |  | suppress the phosphorylation of all three proteins | capable of blocking cytoplasmic-to-nuclear translocation of p65 | suppress the phosphorylation of all three proteins | 31.7 | 57.5 | significantly reduced | less than 90% | no effect on cell viability | 96.0 ± 0.6
